The CheMixHub viscosity set

Assay: xn = mol fraction of the nth substance listed

Brc1ccccc1 + CN(C)C=O
viscosity [mPa·s], 101.33 kPa
Conditions | x2 = 0.0879 | x2 = 0.2075 | x2 = 0.3085 | x2 = 0.4055 | x2 = 0.5063 | x2 = 0.6027 | x2 = 0.6877 | x2 = 0.8054 | x2 = 0.9001 | x2 = 0.9002
303.15 K | 0.982 | 0.973 | 0.963 | 0.949 | 0.931 | 0.905 | 0.879 | 0.831 | – | 0.789
313.15 K | 0.889 | 0.879 | 0.87 | 0.854 | 0.838 | 0.816 | 0.792 | 0.749 | 0.711 | –

C1COCCO1 + CN(C)C=O
viscosity [mPa·s], 101 kPa
Conditions | x2 = 0.1181 | x2 = 0.2316 | x2 = 0.3406 | x2 = 0.4455 | x2 = 0.5465 | x2 = 0.6439 | x2 = 0.7377 | x2 = 0.8282 | x2 = 0.9156
298.15 K | 1.109 | 1.043 | 0.984 | 0.934 | 0.891 | 0.859 | 0.835 | 0.82 | 0.811
308.15 K | 0.952 | 0.899 | 0.849 | 0.807 | 0.772 | 0.746 | 0.726 | 0.714 | 0.708
318.15 K | 0.843 | 0.797 | 0.753 | 0.713 | 0.68 | 0.653 | 0.636 | 0.624 | 0.618

CCCCCC(=O)[O-].C[NH2+]c1ccccc1 + CN(C)C=O
viscosity [mPa·s], 101 kPa
Conditions | x1 = 0.004889 | x1 = 0.008423 | x1 = 0.01411 | x1 = 0.01792 | x1 = 0.02131 | x1 = 0.02717 | x1 = 0.0305 | x1 = 0.03458
293.15 K | 0.957 | 0.969 | 0.992 | 1.009 | 1.026 | 1.052 | 1.072 | 1.099
298.15 K | 0.916 | 0.926 | 0.946 | 0.961 | 0.975 | 0.998 | 1.016 | 1.038
303.15 K | 0.879 | 0.887 | 0.905 | 0.918 | 0.93 | 0.95 | 0.966 | 0.985
308.15 K | 0.846 | 0.854 | 0.869 | 0.881 | 0.891 | 0.909 | 0.923 | 0.94
313.15 K | 0.817 | 0.824 | 0.837 | 0.847 | 0.857 | 0.873 | 0.884 | 0.899
318.15 K | 0.791 | 0.797 | 0.809 | 0.818 | 0.826 | 0.84 | 0.85 | 0.863
323.15 K | 0.767 | 0.772 | 0.784 | 0.791 | 0.798 | 0.812 | 0.82 | 0.831

COc1ccccc1O + CN(C)c1ccccc1
303.15 K, 101 kPa
Conditions | viscosity [mPa·s]
x2 = 0.1 | 3.71
x2 = 0.2 | 3.21
x2 = 0.3 | 2.84
x2 = 0.4 | 2.46
x2 = 0.5 | 2.16
x2 = 0.6 | 1.89
x2 = 0.7 | 1.65
x2 = 0.8 | 1.46
x2 = 0.9 | 1.31

O=C1CCCCO1 + CNC(C)=O
viscosity [mPa·s], 101 kPa
Conditions | x2 = 0.0818 | x2 = 0.2377 | x2 = 0.3396 | x2 = 0.4641 | x2 = 0.5194 | x2 = 0.717 | x2 = 0.7962 | x2 = 0.8929 | x2 = 0.9596
303.15 K | 2.648 | 2.494 | 2.393 | 2.352 | 2.389 | 2.607 | 2.782 | 3.108 | 3.512
308.15 K | 2.412 | 2.288 | 2.199 | 2.203 | 2.222 | 2.422 | 2.583 | 2.896 | 3.125
313.15 K | 2.204 | 2.101 | 2.06 | 2.021 | 2.023 | 2.165 | 2.304 | 2.559 | 2.765
318.15 K | 2.02 | 1.916 | 1.862 | 1.843 | 1.862 | 1.994 | 2.111 | 2.3 | 2.491

COc1ccccc1O + CNc1ccccc1
303.15 K, 101 kPa
Conditions | viscosity [mPa·s]
x2 = 0.1 | 4
x2 = 0.2 | 3.72
x2 = 0.3 | 3.36
x2 = 0.4 | 3.03
x2 = 0.5 | 2.76
x2 = 0.6 | 2.44
x2 = 0.7 | 2.22
x2 = 0.8 | 1.99
x2 = 0.9 | 1.72
